From patent US20100150834A1, “HIGH AFFINITY EPHB RECEPTOR BINDING COMPOUNDS AND METHODS OF USE THEREOF” (priority 2006, published 2010)
Read-outs that look alike come from different tables or passages of the source. No end group written: not given here.

Legend:
EphB1 [1] = assay: EphB receptor specificity (% binding), Table 1; conditions: binding to EphB1
murine EphB4 = biological target: T1, murine EphB4 (Mus musculus, UniProt P54761); assay: Binding ELISA on immobilized murine EphB4-Fc, streptavidin-HRP detection (Table 3); conditions: binding to murine EphB4; based on the estimated concentration of peptide-coupled PEG molecules; read-out: KD ± SE
T1 construct: purchased R&D Systems 446-B4-200
T1 sequence (P54761 16-539 limits assumed): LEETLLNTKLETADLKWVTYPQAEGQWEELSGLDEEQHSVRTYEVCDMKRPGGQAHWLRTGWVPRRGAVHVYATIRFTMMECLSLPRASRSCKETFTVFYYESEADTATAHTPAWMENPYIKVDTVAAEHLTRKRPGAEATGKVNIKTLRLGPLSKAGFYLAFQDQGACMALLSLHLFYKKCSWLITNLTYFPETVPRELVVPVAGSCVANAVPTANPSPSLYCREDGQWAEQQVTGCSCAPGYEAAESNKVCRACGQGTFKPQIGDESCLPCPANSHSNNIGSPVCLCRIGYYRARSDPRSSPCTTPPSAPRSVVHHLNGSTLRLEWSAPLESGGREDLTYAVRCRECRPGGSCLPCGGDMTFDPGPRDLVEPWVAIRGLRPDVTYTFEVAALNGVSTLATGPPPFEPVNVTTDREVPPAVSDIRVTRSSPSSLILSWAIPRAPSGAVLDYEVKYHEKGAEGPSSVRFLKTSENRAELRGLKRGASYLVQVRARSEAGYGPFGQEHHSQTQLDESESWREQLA
Experimental: The dissociation constants in Table 3 were measured in binding assays as described below. Reacti-bind Protein A coated strip plates were washed three times with the wash buffer TBST/Ca (TBS, 0.01% Tween, 1 mM CaCl2). Plates were coated with murine EphB4-Fc (reconstituted in PBS 200 μg/ml, diluted to 1 μg/ml in TBST/Ca) 100 μl/well for 1 hour at ambient temperature. The plates were washed four times with TBST/Ca. PEG-TNYL-RAW-biotin (made by The Burnham Institute, La Jolla, Calif.), obtained from the PEGylation reaction described in Example 2 supra, was added at different concentrations in TBST/Ca (100 μl/well) for 1 hour at ambient temperature. The plates were again washed four times with TBST/Ca. Streptavidin-HRP (1:2000) in 100 μl TBST/Ca was added for 1 hour at ambient temperature. The plates were again washed four times with TBST/Ca.

[2] = biological target: T2, murine EphB4/murine ephrin-B2 (Mus musculus, UniProt P54761); assay: Inhibition of murine EphB4-AP binding to immobilized murine ephrin-B2-Fc (Table 4); conditions: based on the estimated concentration of peptide-coupled PEG molecules, No PEG control not biotinylated
T2 sequence (P54761 16-539 limits assumed): T1 sequence (P54761 16-539 limits assumed)
Experimental: The IC50 values in Table 4 were obtained from inhibition assays. […] Reati-bind Protein A coated strip plates were washed three times with wash buffer TBST/Ca. Plates were coated with murine ephrin-B2-Fc (reconstituted in PBS 200 μg/ml, diluted to 1 μg/ml with TBST/Ca) 100 μl/well for 1 h at ambient temperature. The control used was Human-Fc (1 μg/ml; 100 μl/well); Human-Fc is the control for ephrin-B2-Fc, which contains the extracellular domain of ephrin-B2 fused to the Fc portion of human IgG1. The plates were washed four times with TBST/Ca. For each well was added: PEG-TNYL-RAW-biotin, from PEGylation reaction in Example 2, supra, at different concentrations; 10 μl murine EphB4-Alkaline Phosphatase (EphB4-AP); and TBST/Ca to 50 μl. Plates were incubates for 3 hours at ambient temperature, then washed four times with TBST/Ca. Substrate, 1 mg/ml PNPP in SEAP buffer, was added in the amount of 100 μl/well. (2×SEAP buffer (pH=9.8) was prepared by: adding 2.1 ml diethanolamine and 10 μl 1M MgCl2 to 10 ml (total) water; adjusting pH to 9.8; wrapping in foil and storing at ambient temperature; and diluting with water to 1× on day of use). Optical density analysis (OD405) was performed using a plate reader to determine the extent to which PEG-TNYL-RAW-biotin inhibits the EphB4-ephrin-B2 interaction. […]

EphB2 = EphB2 (Homo sapiens, UniProt P29323); assay: EphB receptor specificity (% binding), Table 1; conditions: binding to EphB2
EphB1 [3] = biological target: T3, EphB1 (Homo sapiens, UniProt P54762); assay: Inhibition of ephrin-B2 AP binding by peptides panned on EphB1 (Table 1)
T3 sequence (P54762 18-540 limits assumed): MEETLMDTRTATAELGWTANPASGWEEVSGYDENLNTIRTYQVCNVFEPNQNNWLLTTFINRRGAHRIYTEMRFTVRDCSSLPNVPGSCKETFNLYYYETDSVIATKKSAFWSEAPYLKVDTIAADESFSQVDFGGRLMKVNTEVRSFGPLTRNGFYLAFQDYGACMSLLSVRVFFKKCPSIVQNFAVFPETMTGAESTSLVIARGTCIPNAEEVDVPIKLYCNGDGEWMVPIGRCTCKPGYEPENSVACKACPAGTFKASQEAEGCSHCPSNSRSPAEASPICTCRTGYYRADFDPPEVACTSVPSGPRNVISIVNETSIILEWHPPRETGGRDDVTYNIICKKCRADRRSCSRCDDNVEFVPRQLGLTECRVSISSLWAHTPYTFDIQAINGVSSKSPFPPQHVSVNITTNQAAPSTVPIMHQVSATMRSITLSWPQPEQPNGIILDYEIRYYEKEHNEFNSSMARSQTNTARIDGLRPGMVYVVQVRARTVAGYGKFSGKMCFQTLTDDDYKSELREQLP

EphB4 = biological target: T4, EphB4 (Mus musculus, UniProt P54761); assay: EphB receptor specificity (% binding), Table 1; conditions: binding to EphB4
T4 sequence (P54761 16-987): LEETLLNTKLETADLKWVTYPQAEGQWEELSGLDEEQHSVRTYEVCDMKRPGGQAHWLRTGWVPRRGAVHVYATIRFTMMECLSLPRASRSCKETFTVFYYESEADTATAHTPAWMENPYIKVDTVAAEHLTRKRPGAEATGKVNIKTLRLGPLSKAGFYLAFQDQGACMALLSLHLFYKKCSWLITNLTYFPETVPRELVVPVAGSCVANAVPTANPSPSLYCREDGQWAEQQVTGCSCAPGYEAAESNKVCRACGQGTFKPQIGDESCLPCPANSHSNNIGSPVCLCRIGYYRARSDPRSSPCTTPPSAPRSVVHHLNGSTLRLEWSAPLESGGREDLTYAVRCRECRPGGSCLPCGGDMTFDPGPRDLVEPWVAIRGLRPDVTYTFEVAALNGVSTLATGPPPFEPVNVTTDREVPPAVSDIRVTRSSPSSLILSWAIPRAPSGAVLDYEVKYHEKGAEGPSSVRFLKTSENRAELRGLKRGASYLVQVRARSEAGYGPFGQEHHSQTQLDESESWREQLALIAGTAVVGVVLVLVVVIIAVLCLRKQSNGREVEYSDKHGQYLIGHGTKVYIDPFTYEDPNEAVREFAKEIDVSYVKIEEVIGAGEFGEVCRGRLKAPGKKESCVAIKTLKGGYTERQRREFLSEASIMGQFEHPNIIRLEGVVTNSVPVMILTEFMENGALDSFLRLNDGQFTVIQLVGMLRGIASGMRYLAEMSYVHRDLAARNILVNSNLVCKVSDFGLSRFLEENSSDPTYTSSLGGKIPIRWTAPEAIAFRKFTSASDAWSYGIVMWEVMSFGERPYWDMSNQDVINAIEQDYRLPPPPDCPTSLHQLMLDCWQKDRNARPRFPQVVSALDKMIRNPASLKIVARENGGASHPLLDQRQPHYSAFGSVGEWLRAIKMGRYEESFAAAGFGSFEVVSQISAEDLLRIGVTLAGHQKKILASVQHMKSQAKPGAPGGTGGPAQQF

Chain of EphB2 (P29323 19-1055): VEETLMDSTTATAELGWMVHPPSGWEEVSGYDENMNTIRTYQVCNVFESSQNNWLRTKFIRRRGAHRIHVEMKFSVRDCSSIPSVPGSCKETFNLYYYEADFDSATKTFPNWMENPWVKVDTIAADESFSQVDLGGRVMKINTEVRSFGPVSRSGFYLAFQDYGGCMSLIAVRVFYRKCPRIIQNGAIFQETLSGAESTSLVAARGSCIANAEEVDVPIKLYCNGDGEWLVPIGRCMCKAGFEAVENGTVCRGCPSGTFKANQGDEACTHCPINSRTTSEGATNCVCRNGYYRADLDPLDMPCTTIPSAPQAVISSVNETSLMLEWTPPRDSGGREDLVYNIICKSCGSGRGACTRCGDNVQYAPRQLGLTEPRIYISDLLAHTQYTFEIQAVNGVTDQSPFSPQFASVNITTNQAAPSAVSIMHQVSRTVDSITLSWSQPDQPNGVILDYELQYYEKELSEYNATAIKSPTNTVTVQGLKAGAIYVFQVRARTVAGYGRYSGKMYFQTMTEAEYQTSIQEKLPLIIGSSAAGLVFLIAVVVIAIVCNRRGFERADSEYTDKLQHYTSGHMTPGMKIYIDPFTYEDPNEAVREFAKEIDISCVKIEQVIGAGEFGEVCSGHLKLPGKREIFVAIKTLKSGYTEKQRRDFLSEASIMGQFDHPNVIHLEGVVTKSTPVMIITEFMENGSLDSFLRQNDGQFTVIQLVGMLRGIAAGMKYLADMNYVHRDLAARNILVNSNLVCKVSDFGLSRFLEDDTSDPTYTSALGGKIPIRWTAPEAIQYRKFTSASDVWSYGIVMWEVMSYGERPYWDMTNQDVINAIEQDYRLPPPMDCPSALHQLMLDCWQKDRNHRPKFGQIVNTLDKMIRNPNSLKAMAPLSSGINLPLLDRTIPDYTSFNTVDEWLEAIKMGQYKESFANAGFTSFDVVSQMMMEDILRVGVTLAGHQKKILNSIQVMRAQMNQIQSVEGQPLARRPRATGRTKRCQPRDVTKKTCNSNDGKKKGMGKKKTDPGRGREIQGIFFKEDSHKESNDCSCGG

Molecule: CC[C@H](C)[C@H](NC(=O)[C@@H](NC(=O)[C@@H]1CCCN1C(=O)[C@@H](N)CC(N)=O)C(C)C)C(=O)NCC(=O)N1CCC[C@H]1C(=O)N[C@H](C(=O)N[C@@H](CCC(N)=O)C(=O)N[C@@H](CCCNC(=N)N)C(=O)N[C@@H](C)C(=O)N[C@@H](Cc1c[nH]c2ccccc12)C(=O)N[C@H](C(=O)O)[C@@H](C)O)[C@@H](C)CC [compound 27]
- EphB Receptor Specificity (% Binding) B1 (EphB1 [1]): 1%

Molecule: 3.4 Kd (dimer): two TNYL-RAW peptides (with biotin) conjugated to a 3.4 kDa bifunctional PEG (SMB-PEG-SMB) (TNYLFSPNGPIARAW; also: biotin, position not given here, dimer: two peptides joined by 3.4 kDa bifunctional PEG (SMB-PEG-SMB))
- Kd (murine EphB4): 0.9 ± 0.3 nM

Molecule: 10 Kd (monomer): one TNYL-RAW peptide (with biotin) conjugated to a 10 kDa PEG molecule (TNYLFSPNGPIARAW; also: conjugated to a 10 kDa PEG, site not given here, biotin, position not given here)
- Kd (murine EphB4): 1.4 ± 0.7 nM
- IC50 [2]: 21 ± 5 nM

Molecule: 10 Kd (dimer): two TNYL-RAW peptides (with biotin) conjugated to a 10 kDa bifunctional PEG (SMB-PEG-SMB) (TNYLFSPNGPIARAW; also: biotin, position not given here, dimer: two peptides joined by 10 kDa bifunctional PEG (SMB-PEG-SMB))
- Kd (murine EphB4): 0.9 ± 0.2 nM
- IC50 [2]: 9 ± 2 nM

Molecule: TYFDFQAWSIRA [compound 22]
- EphB Receptor Specificity (% Binding) B1 (EphB1 [1]): 10%

Molecule: EWLSPNLAPSVR [compound 1]
- EphB Receptor Specificity (% Binding) B2 (EphB2): 2%
- IC50 (EphB1 [3]; panning receptor EphB1): ~10 µM

Molecule: EWYMKFPPEHYF [compound 19]
- EphB Receptor Specificity (% Binding) B1 (EphB1 [1]): 22%

Molecule: TNYLFSPNGPIARAW [TNYL-RAW]
- stability in cell conditioned medium (cell conditioned medium in the absence of the cells (FIG. 3C)): rapidly lost
- stability in cell culture medium with PC3 cells (medium replaced with fresh medium just before adding the peptide (FIG. 3B)): remained intact for several hours
- stability in cell conditioned medium with protease inhibitors (mixture of protease inhibitors (aprotinin, PMSF, leupeptin, pepstatin) added to conditioned medium (FIG. 3D)): reduce peptide instability

Molecule: CC[C@H](C)[C@H](NC(=O)[C@@H]1CCCN1C(=O)[C@H](Cc1c[nH]c2ccccc12)NC(=O)[C@H](Cc1c[nH]cn1)NC(=O)[C@@H](N)CO)C(=O)N[C@@H](CO)C(=O)N1CCC[C@H]1C(=O)N[C@@H](Cc1ccc(O)cc1)C(=O)N[C@@H](CO)C(=O)N[C@@H](CC(C)C)C(=O)N[C@@H](CC(C)C)C(=O)N[C@@H](CO)C(=O)O [compound 14]
- EphB Receptor Specificity (% Binding) B1 (EphB1 [1]): 39%

Molecule: CC[C@H](C)[C@H](NC(=O)[C@H](CCCNC(=N)N)NC(=O)[C@H](Cc1c[nH]c2ccccc12)NC(=O)[C@H](Cc1c[nH]cn1)NC(=O)[C@@H](N)CC(=O)O)C(=O)N[C@@H](CC(C)C)C(=O)N1CCC[C@H]1C(=O)N[C@@H](Cc1ccccc1)C(=O)N[C@@H](CO)C(=O)N[C@@H](CC(C)C)C(=O)N[C@@H](CO)C(=O)N[C@@H](CO)C(=O)O [compound 10]
- EphB Receptor Specificity (% Binding) B1 (EphB1 [1]): 53%

Molecule: FSPQGPAARNFA [compound 25]
- EphB Receptor Specificity (% Binding) B1 (EphB1 [1]): 13%

Molecule: 35 (SGHQLLNKMPN; EphB4-binding peptide) [compound 35]
- EphB Receptor Specificity (% Binding) B4 (EphB4): 100%

Molecule: CC(C)C[C@H](NC(=O)[C@H](C)NC(=O)[C@@H](N)CC(=O)O)C(=O)N[C@@H](CC(N)=O)C(=O)N[C@@H](CC(=O)O)C(=O)N[C@@H](Cc1c[nH]c2ccccc12)C(=O)N[C@@H](CC(C)C)C(=O)N[C@@H](CC(C)C)C(=O)N[C@@H](Cc1ccccc1)C(=O)N[C@@H](CCCNC(=N)N)C(=O)N1CCC[C@H]1C(=O)N[C@@H](Cc1c[nH]c2ccccc12)C(=O)O [compound 20]
- EphB Receptor Specificity (% Binding) B1 (EphB1 [1]): 0%

Molecule: CC[C@H](C)[C@H](NC(=O)[C@@H]1CCCN1C(=O)CNC(=O)[C@H](CC(N)=O)NC(=O)[C@@H]1CCCN1C(=O)[C@H](CO)NC(=O)[C@H](Cc1ccccc1)NC(=O)[C@H](CC(C)C)NC(=O)[C@H](Cc1ccc(O)cc1)NC(=O)[C@H](CC(N)=O)NC(=O)[C@@H](N)[C@@H](C)O)C(=O)N[C@@H](C)C(=O)O [compound 24]
- EphB Receptor Specificity (% Binding) B1 (EphB1 [1]): 5%

Molecule: AHTFPYPHPKPH [compound 3]
- EphB Receptor Specificity (% Binding) B1 (EphB1 [1]): 100%
- EphB Receptor Specificity (% Binding) B2 (EphB2): 4%
- IC50 (EphB1 [3]): ~150 µM

Molecule: DHNHNLYNPWRL [compound 21]
- EphB Receptor Specificity (% Binding) B1 (EphB1 [1]): 9%
- EphB Receptor Specificity (% Binding) B2 (EphB2): 8%

Molecule: CC[C@H](C)[C@H](NC(=O)[C@H](C)NC(=O)[C@H](Cc1ccccc1)NC(=O)[C@@H]1CCCN1C(=O)[C@H](CCC(=O)O)NC(=O)[C@@H](NC(=O)[C@@H](NC(=O)[C@H](Cc1c[nH]c2ccccc12)NC(=O)[C@H](Cc1c[nH]cn1)NC(=O)[C@@H](N)Cc1c[nH]c2ccccc12)[C@@H](C)O)[C@@H](C)CC)C(=O)N[C@H](C(=O)N[C@@H](CO)C(=O)O)[C@@H](C)O [compound 8]
- EphB Receptor Specificity (% Binding) B1 (EphB1 [1]): 99%
